# Measurements published in patent publication US6913748B2, “Cross-linkers with high reactivity and solubility and their use in the preparation of conjugates for targeted delivery of small molecule drugs” (Immunogen, Inc., priority 2002, dated 2005).
# Assays:
# N901 antibody with DM1 = test: Conjugation (disulfide exchange) of linker-modified N901 antibody with DM1; design: species or system murine; conditions: pH 7.4; 1.1-fold molar excess of DM1 per linker; compared with SPP-modified antibody
# Method: SPP or SSNPP linker was dissolved in ethanol at a concentration of approximately 10 mM. Antibody was dialyzed into buffer A (50 mM KPi, 50 mM NaCl, 2 mM EDTA, pH 6.5). For the linker reaction, the antibody was at 8 mg/ml, and 7 equivalents of linker were added while stirring in the presence of 5% (v/v) ethanol. The reaction was allowed to proceed at ambient temperature for 90 minutes. Unreacted linker was removed from the antibody by Sephadex G25 gel filtration using a Sephadex G25 column equilibrated with Buffer A at pH 6.5 or 150 mM potassium phosphate buffer containing 100 mM NaCl, pH 7.4 as indicated. For the SPP linker, the extent of modification was assessed by release of pyridine-2-thione using 50 mM DTT and measuring the absorbance at 343 nm as described below (ε343=8080 M^−1 cm^−1 for free pyridine-2-thione). For SSNPP, modification was assessed directly by measuring the absorbance at 325 nm (ε325=10,964 M^−1 cm^−1 for the 4-nitropyridyl-2-dithio group linked to antibody). […] For DML, the extent of drug conjugation to antibody was assessed by measuring A252 and A280 of the conjugate as described below. […]
# Calculating Ab and DM1 component concentrations of Ab-DM1. […] The components are quantified using the following algebraic expressions which account for the contribution of each component at each wavelength (CAb is the molar concentration of Ab and CD is the molar concentration of DM1): […]
# [1] = Unconjugated (free) drug by reverse phase HPLC analysis of the conjugate sample; conditions: N901-DM1 conjugate, 1.7-fold DM1
# Method: (§1) The increased efficiency of conjugation using the SSNPP linker is accomplished without compromise in the monomeric character of the conjugate and in the amount of unconjugated (free) drug associated with the antibody conjugate. SEC analysis is used to determine the amount of monomer, dimer, trimer, or higher molecular weight aggregates. The level of unconjugated drug was measured by reverse phase HPLC analysis of the conjugate sample. The percent free drug for either reaction was less than 2%. In addition, shorter conjugation reaction times are possible with SSNPP compared with SPP (5), which may decrease loss of some antibodies that are sensitive to prolonged exposure to organic solvent required in the conjugation reaction. Shorter reaction times should also decrease drug loss due to DM1 dimerization, which is a competing side reaction during conjugation. The resulting increases in yield and reduced side reactions should further contribute to reduced DM1 requirements.
# [2] = SEC analysis of conjugate (monomer, dimer, trimer, higher molecular weight aggregates); type: physicochemical; conditions: N901-DM1 conjugate; conjugation at pH 7.4, 2 hours, 1.7-fold DM1
# Method: as §1
# [3] = Solubility of cross-linkers in water / aqueous solutions; type: physicochemical
Compound,time course of the reaction of DM1 with modified antibody (FIG. 8) (N901 antibody with DM1),"% free drug ([1]; conjugation at pH 6.5, 2 hours)","% free drug ([1]; conjugation at pH 7.4, 2 hours)",SEC Analysis Dimer [2],SEC Analysis HMW [2],SEC Analysis Monomer [2],SEC Analysis Trimer [2],solubility in water / aqueous solutions [3]
"CC(CCC(=O)ON1C(=O)CC(S(=O)(=O)O)C1=O)SSc1ccc([N+](=O)[O-])cn1 (centres unmarked) [SSNPP, N-Sulfosuccinimidyl 4-(5-nitro-2-pyridyldithio)-pentanoate]",considerably faster,0.9%,0.8%,6.3%,0.1%,91.9%,0.6%,highly water-soluble
"CC(CCC(=O)ON1C(=O)CCC1=O)SSc1ccccn1 (centres unmarked) [SPP, reference compound]",,1.9%,1.8%,4.9%,0.2%,93.6%,0.4%,
